Earlier results in patent publication US8889745B2 (Nanunanu Ltd., priority 2006, dated 2014).
In brackets after ≈: the same amount, converted by molar mass.

C[C@@H]1C[C@H]2[C@@H]3CCC4=CC(=O)C=C[C@]4(C)[C@@]3(F)[C@@H](O)C[C@]2(C)[C@@]1(O)C(=O)CO [dexamethasone]
aqueous solubility: 88 µg/mL (≈ 224 µM)
